Source: paper PMC13267291, “In vivo functional profiling and structural characterization of the human GLP1R A316T variant” (Science Advances, 2026)

How the values were obtained:
[1] = tested on: SNAP/FLAG-hGLP1R^A316T versus ^WT; assay: Insulin secretion in transduced primary human islets; type: cell-based; details: 11 mM glucose + 100 nM; n = 4; Fig. 6G,H
[2] = tested on: hGLP1R^A316T-SmBiT versus hGLP1R^WT-SmBiT; assay: β-arrestin 2 recruitment by NanoBiT complementation; type: cell-based, rat
Procedure: For mini-Gs recruitment, INS-1 832/3 Glp1r^−/− cells were seeded in 6-cm dishes and transiently cotransfected with 1.7 μg each of hGLP1R^WT or ^A316T-SmBiT and LgBiT-mini-Gs constructs for 24 hours. Cells were then detached, resuspended in Hanks’ balanced salt solution (HBSS) containing NanoGlo Live Cell Reagent (1:20; Promega) with furimazine, and seeded onto white 96-well half-area plates. Baseline luminescence was immediately recorded over 8 min at 37°C in a Flexstation 3 plate reader (Molecular Devices) and for a further 30 min after GLP-1RA addition at serial doses up to 100 nM. Readings were taken every 30 s and normalized to average well baseline, and average vehicle-induced signal was subtracted to establish the agonist-induced effect. To measure β-arrestin 2 recruitment, cells were processed as above with slight modifications: INS-1 832/3 Glp1r^−/− cells were cotransfected with 1.77 μg each of hGLP1R^WT or ^A316T-SmBiT and LgBiT–β-arrestin 2 plasmids for 24 hours, and GLP-1RAs were added at serial doses up to 1 μM. AUCs were calculated for each agonist concentration and fitted to log(agonist) versus response four-parameter curves using GraphPad Prism 10.1.2, with errors propagated for mini-Gs over β-arrestin 2 recruitment bias calculations.

## exendin-4
[1]
  Agonist-induced potentiation of insulin secretion, A316T versus WT: near-significant loss

## exendin-F1
[2]; serial doses up to 1 μM, n = 5, Fig. 7M
  Agonist-induced recruitment of β-arrestin 2, A316T versus WT, log(Emax/EC50): near-significant reduction
[2]; Δlog(Emax/EC50) βarr2 − mini-Gs, Fig. 7N
  β-arrestin 2 over Gαs signaling bias, A316T versus WT: significant shift toward Gαs recruitment
